Test results as given in EP1182931B1, “STABLE BIOCIDAL COMPOSITIONS” (NUFARM LIMITED, priority 1999, dated 2000).

Assays:
[1] = tested on: gastrointestinal roundworm; assay: Sheep trial CO52: faecal egg count reduction; type: in vivo; settings: lambs, oral, six days after treatment, versus untreated controls, arithmetic mean
Experimental: An anthelmintic drench trial was conducted on a sheep farm in North Auckland, New Zealand using 67 Romney and Romney cross suffock lambs (18-35kg bodyweight) of mixed sex.
The 67 lambs were randomly allocated by egg count into 4 groups of 10 lambs (Groups A, B, C, D) and 3 groups of 9 lambs (Groups E, F, G). The 3 groups of 9 lambs (E, F G) were drenched with a commercial formulation from one of the three broad spectrum anthelmintic drench families consisting of albendazole, a member of the benzimidazole or white drenches (Group E), levamisole, a member of the imidazothiazole / tetrahydropyrimidazole or clear drenches (Group F) and Ivermectin, a member of the macrocyclic lactones (Group G). Of the 4 remaining groups, Group A remained as untreated controls, Group B received the unmineralised test product (formulation 00-27C) containing all 3 actives (albendazole, levamisole, ivermectin), Group C received the same basic formulation but with the addition of selenium as the sodium selenate (formulation 00-27B) and Group D received the same basic formulation but with the addition of both selenium and cobalt with cobalt given as the cobalt chelate (formulation 00-27A) - See Table 27.
All animals were weighed and dosed by syringe to the nearest 0.1ml with the appropriate product for that group. Six days after oral treatment the animals were slaughtered and faecal samples were collected at slaughter.

Haemonchus = assay: Trial C0040 sheep roundworm and tapeworm trial: worm count; type: in vivo; settings: lambs, oral, slaughter Day 7 and Day 8, arithmetic means
Experimental: (§1) Fifty three pasture fed 6-8 month old Romney lambs from the southern North Island, New Zealand that were naturally infected with tapeworms, were orally dosed with three times the standard dose of ivermectin (3 x 0.2 = 0.6mg/kg liveweight) to remove their naturally acquired roundworm infection while leaving their tapeworm burden. The animals were then housed indoors on slats to prevent natural reinfections with roundworms and each lamb was orally dosed daily for 5 days with a similar mixture of 5,000 roundworm larvae (total 25,000 larvae) consisting primarily of Haemonchus, Trichostrongylus, Ostertagia and Nematodirus. The larvae originated from four New Zealand sheep farms, three of which had evidence of resistance to one or more drench families. Lambs were injected with 0.5mL of a corticosteroid (opticortenol) two days prior to artificial oral larval infection. This was done to assist establishment of the worm larvae. 25 days after infection the animals were restrictively allocated to groups by bodyweight and also the presence of tapeworm infection, to one of seven treatment groups (Groups A-G). Four treatment groups (the untreated control and test products Groups A-D) had 8 animals per group, and three groups (E-G) contained 7 animals per group. The groups with 7 animals per group (E, F, G) were orally dosed with a single standard commercial product. All animals were slaughtered at Day 7 and Day 8 after treatment and total numbers of gastrointestinal roundworms and tapeworms counted.

Nematodirus = assay: as above; type: in vivo; settings: lambs, oral, slaughter Day 7 and Day 8
Experimental: as §1

Ostertagia = assay: as above; type: in vivo; settings: lambs, oral, slaughter Day 7 and Day 8
Experimental: as §1

Trichostrongylus = assay: as above; type: in vivo; settings: lambs, oral, slaughter Day 7 and Day 8
Experimental: as §1

Moniezia = assay: Trial C0040 sheep roundworm and tapeworm trial: tapeworm count; type: in vivo; settings: lambs, oral, slaughter Day 7 and Day 8
Experimental: as §1, with “The groups with 7 animals per group (E, F, G) were orally dosed with a single standard commercial product.” left out

Protozoa = settings: Spectrum of Activity; cited from earlier work
Gastrointestinal Worms = settings: Spectrum of Activity; cited from earlier work

Row | Molecule | reductions in egg count [1] [%] | reduction of Nematodirus in the small intestine (Nematodirus) [%] | removal of worm numbers, Ostertagia (Ostertagia) [%] | Nematodes Gastrointestinal Worms (Gastrointestinal Worms) | also measured
1 | CCCSc1ccc2nc(NC(=O)OC)[nH]c2c1 [Albendazole] | 63 | 59 | 64 |  | reduction in worm numbers, Haemonchus (Haemonchus): 93%; efficacy against Trichostrongylus in the small intestine (Trichostrongylus): 80%; effect on tapeworm Moniezia (Moniezia): slight trend to less Moniezia volume; Protozoa (Protozoa): +(Giardia)
2 | Cc1cc(C(C#N)c2ccc(Cl)cc2)c(Cl)cc1NC(=O)c1cc(I)cc(I)c1O (stereo not drawn) [Closantel] |  |  |  | +(Haemonchus) | 
3 | COC(=O)Nc1nc2cc(Sc3ccccc3)ccc2[nH]1 [Fendendazole] |  |  |  |  | Protozoa (Protozoa): +(Giardia)
4 | c1ccc([C@H]2CN3CCSC3=N2)cc1 [Levamisole] | 22 | 99 | 96 |  | 
5 | N#Cc1cc(I)c(O)c([N+](=O)[O-])c1 [Nitroxyinil] |  |  |  | +(Haemonchus) | 
6 | O=C(Nc1cc(Cl)cc(Cl)c1O)c1c(O)c(Cl)cc(Cl)c1Cl [Oxydosanide] |  |  |  | +(Haemonchus) | 
7 | O=C(Nc1ccc(Oc2ccc(Cl)cc2)c(Cl)c1)c1cc(I)cc(I)c1O [Rafoxamide] |  |  |  | +(Haemonchus) | 
8 | Ivermectin | 79 | 100 | 54 |  | 
